Source: patent publication US12492194B2, “HPK1 inhibitors” (Janssen Pharmaceutica NV, priority 2019, dated 2025)

What was measured:
Hpk1 = Hpk1 (Homo sapiens, UniProt Q92918); test: SLP76 phosphorylation assay (SLP76 pS376 in lysates of HEK293 cells engineered to express Hpk1 and SLP76); format: cell-based; details: HEK293 cells expressing Hpk1 and SLP76, 4 hours incubation; for IC50: read-out: pSLP76 (HEK293) (pIC50) (converted)
Protocol: SLP76 Phosphorylation Assay
Hpk1 inhibition in cells was determined by detection of SLP76 phosphorylation at S376 in lysates from HEK293 cells engineered to express Hpk1 and SLP76. Serial dilutions of test compounds were prepared in cell culture medium and 20 μl was transferred into each well of a 96-well plate containing HEK293 cells in 180 μl of culture medium. After incubation for 4 hours at 37° C./5% CO2, the culture medium was removed, plates were put on ice and cells washed with cold Minimal Essential Medium before lysing in 90 μl of cold Mammalian Protein Extraction Reagent (Thermo Scientific, 78501) for 30 minutes on ice. The cell lysates were transferred to another 96-well plate, centrifuged 10 minutes at 3000 rcf (4° C.) and 30 μl transferred to a 96-well High-bind plate (MSD, L15XB-3). After coating overnight at 4° C., the cell lysate was removed, wells were washed with base buffer (TBS, 0.2% Tween-20), and blocking solution (base buffer containing 3% MSD blocker A) was added to each well for 1 hour at room temperature. The blocking solution was removed, the wells were washed with base buffer, and detection antibody (SLP76 pS376) was added in 25 μl base buffer containing 1% MSD blocker A to each well. After a 2 h incubation at room temperature, the detection antibody was removed, wells were washed four times with base buffer, 25 μl SULFO-TAG labeled goat anti-rabbit secondary antibody (MSD, R32AB-1) in base buffer containing 1% MSD blocker A was added to each well and left for 1 hour at room temperature. Wells were washed 4 times with base buffer, 150 μl Read Buffer T was added to each well, and the plates were read in a Mesoscale plate reader (MSD). IC50 values were determined by curve-fitting the electrochemiluminescent signals obtained from the lysates of HEK293 cells expressing Hpk1 and SLP76 treated with test compounds at various concentrations minus the signal obtained from HEK293 cells expressing SLP76 only.

full-length human Hpk1 = target: T1, full-length human Hpk1 (Homo sapiens, UniProt Q92918); test: HPK1 kinase assay (ADP Glo Kinase Assay); format: biochemical; details: full-length human GST-Hpk1, ADP Glo, 75 μM ATP; for IC50: read-out: Hpk1 biochemical (pIC50) (converted)
T1 construct: A recombinant fusion protein consisting of full-length human Hpk1; GST (N)
Protocol: Pharmacological Part HPK1 Kinase Assay
A recombinant fusion protein consisting of full-length human Hpk1 with an N-terminal Glutatione S-transferase (GST) tag was produced in a baculovirus/insect cell expression system. GST-Hpk1 protein was purified from cell lysates by glutathione sepharose affinity chromatography. Kinase inhibition was determined using the ADP Glo™ Kinase Assay kit (Promega, V9101). Test compounds were prepared by serial dilution in dimethyl sulfoxide (DMSO) and 0.1 μl of each dilution was spotted onto a 384-well white Proxiplate (Perkin Elmer, 6008289). 8 μl of kinase assay buffer (40 mM Tris pH 7.5, 2 mM dithiothreitol (DTT), 0.05% Bovine Serum Albumin, 5 mM MgCl2) containing Hpk1 protein was transferred to each well and incubated for 30-45 minutes at room temperature. The enzymatic reaction was started by adding 2 μl of kinase assay buffer containing 75 μM ATP. After 120 minutes, the reaction was stopped by adding 3 μl of ADP Glo™ reagent (Promega, V9101) and incubating 45 minutes at room temperature.

Hpk1, sequence (Q92918 whole entry): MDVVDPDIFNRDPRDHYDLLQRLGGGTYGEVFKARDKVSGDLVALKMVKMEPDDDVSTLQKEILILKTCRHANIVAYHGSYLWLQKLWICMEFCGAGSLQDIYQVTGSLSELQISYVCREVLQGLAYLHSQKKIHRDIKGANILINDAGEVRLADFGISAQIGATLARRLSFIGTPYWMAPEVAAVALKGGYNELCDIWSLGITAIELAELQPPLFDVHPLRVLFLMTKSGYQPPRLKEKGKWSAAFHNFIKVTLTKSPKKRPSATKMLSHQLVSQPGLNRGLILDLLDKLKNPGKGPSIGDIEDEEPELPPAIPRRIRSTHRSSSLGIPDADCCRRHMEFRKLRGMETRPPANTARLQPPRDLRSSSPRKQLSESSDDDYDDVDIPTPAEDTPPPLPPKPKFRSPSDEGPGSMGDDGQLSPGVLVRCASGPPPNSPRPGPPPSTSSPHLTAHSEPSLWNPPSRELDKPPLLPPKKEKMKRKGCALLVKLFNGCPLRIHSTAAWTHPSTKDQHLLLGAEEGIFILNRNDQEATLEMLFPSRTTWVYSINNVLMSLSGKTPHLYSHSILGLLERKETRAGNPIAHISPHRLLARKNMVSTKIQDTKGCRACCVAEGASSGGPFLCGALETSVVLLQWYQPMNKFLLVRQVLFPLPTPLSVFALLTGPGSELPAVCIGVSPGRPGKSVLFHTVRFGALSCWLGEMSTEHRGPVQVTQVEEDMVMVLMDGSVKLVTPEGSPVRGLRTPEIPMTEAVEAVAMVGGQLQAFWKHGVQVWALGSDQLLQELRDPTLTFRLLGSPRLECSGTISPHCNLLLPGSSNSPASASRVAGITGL
T1 sequence (Q92918 whole entry, the tested form may be a part): as the sequence (Q92918 whole entry) above

| pSLP76 (HEK293) (pIC50) (Hpk1) | Hpk1 biochemical (pIC50) (full-length human Hpk1) | IC50 (Hpk1) [nM] | IC50 (full-length human Hpk1) [nM] | SMILES |
| --- | --- | --- | --- | --- |
| 5.1 | 6.84 | – | – | CC(=O)N1CCC(c2cc(-c3ccc(C4CCOCC4)c([C@@H]4CCCN4)c3)cnc2N)CC1 [Co. 96] |
| – | – | 724 | 26.3 | CS(=O)(=O)N1CCC(c2ccc(-c3cnc(N)c(-c4ccnc(F)c4)c3)cc2[C@@H]2CCCN2)CC1 [Co. 98] |
| – | – | 646 | 21.4 | Nc1ncc(-c2ccc(C3CCSCC3)c([C@@H]3CCCN3)c2)cc1-c1ccnc(F)c1 [Co. 99] |
| – | – | 1860 | 19.5 | Nc1ncc(-c2ccc(C3CCS(=O)(=O)CC3)c([C@@H]3CCCN3)c2)cc1-c1ccnc(F)c1 [Co. 100] |
| – | – | > 10000 | 295 | Nc1ncc(-c2ccc(C3CCOCC3)c([C@@H]3CCCN3)c2)cc1C1CCS(=O)(=O)CC1 [Co. 102] |
| – | – | 7940 | 58.9 | Nc1ncc(-c2ccc(C3CCOCC3)c([C@@H]3CN4CCCC[C@H]4CN3)c2)cc1Br [Co. 104] |
| – | – | > 10000 | 380 | Nc1ncc(-c2ccc(C3CCOCC3)c(CNC3COC3)c2)cc1-c1ccnc(F)c1 [Co. 105] |
| – | – | 7410 | 178 | CN(Cc1cc(-c2cnc(N)c(-c3ccncc3)c2)ccc1C1CCOCC1)C1CC1 [Co. 106] |
| – | – | 7590 | 117 | Nc1ncc(-c2ccc(C3CCOCC3)c(CN3CCCC3)c2)cc1-c1ccncc1 [Co. 108] |
| – | – | 4680 | 89.1 | CN(C)Cc1cc(-c2cnc(N)c(C(=O)NCCO)c2)ccc1C1CCOCC1 [Co. 110] |
| – | – | 5890 | 110 | CC(CO)CNC(=O)c1cc(-c2ccc(C3CCOCC3)c(CN(C)C)c2)cnc1N (stereo not drawn) [Co. 111] |
| – | – | > 10000 | 35.5 | Nc1ncc(-c2ccc(C3CCOCC3)c([C@@H]3CCCN3)c2)cc1-c1ccc(=O)[nH]c1 [Compound 56] |
